The values below come from ChEMBL document CHEMBL1909046, “DrugMatrix in vitro pharmacology data”.

One may read the IC50 as the concentration that inhibits the measured activity by half. In general, Ki refers to the dissociation constant of the complex between target and ligand, obtained from inhibition or displacement.

Data set [1] addresses T1, 5-hydroxytryptamine receptor 2C (Homo sapiens, UniProt P28335).
T1 sequence (P28335 whole entry): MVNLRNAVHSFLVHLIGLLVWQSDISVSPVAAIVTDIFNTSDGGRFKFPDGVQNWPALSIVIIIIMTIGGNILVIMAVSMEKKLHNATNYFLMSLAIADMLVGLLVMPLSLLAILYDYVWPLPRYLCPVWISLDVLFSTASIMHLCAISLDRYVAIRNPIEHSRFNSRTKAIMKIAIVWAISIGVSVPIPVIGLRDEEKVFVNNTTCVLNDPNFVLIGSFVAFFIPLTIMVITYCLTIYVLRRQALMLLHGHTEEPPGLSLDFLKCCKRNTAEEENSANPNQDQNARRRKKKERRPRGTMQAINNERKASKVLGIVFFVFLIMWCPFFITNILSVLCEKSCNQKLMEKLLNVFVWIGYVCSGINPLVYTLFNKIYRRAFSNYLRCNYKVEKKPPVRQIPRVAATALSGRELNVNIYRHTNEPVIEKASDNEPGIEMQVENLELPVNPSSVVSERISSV
Nature of the data set: DRUGMATRIX: Serotonin (5-Hydroxytryptamine) 5-HT2C radioligand binding (ligand: [3H] Mesulergine). The following applies: cho-k1; Not Active = under 50% inhibition at 10 µM. The format is cell membranes, CHO-K1, Membrane.

In data set [2] the target is Sodium-dependent dopamine transporter (Homo sapiens, UniProt Q01959). Put plainly: DRUGMATRIX: Dopamine Transporter radioligand binding (ligand: [125I] RTI-55). The conditions noted are these: Not Active = under 50% inhibition at 10 µM. The format is cell membranes, CHO-K1, Membrane.
For data set [3], the target named is Protein phosphatase 3 catalytic subunit alpha (Homo sapiens, UniProt Q08209). Also noted: species or system Escherichia coli.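 Note: inhibition of calcineurin (PP2B) enzyme activity, measured with DiFMUP as the substrate; in other assays of this panel Not Active means under 50% inhibition at 10 µM.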
The target in data set [4] is T2, Polyunsaturated fatty acid lipoxygenase ALOX15 (Oryctolagus cuniculus, UniProt P12530).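 Note: inhibition of 15-lipoxygenase enzyme activity measured with linoleic acid as the substrate; in other assays of this panel Not Active means under 50% inhibition at 10 µM.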
T2 sequence (P12530 whole entry): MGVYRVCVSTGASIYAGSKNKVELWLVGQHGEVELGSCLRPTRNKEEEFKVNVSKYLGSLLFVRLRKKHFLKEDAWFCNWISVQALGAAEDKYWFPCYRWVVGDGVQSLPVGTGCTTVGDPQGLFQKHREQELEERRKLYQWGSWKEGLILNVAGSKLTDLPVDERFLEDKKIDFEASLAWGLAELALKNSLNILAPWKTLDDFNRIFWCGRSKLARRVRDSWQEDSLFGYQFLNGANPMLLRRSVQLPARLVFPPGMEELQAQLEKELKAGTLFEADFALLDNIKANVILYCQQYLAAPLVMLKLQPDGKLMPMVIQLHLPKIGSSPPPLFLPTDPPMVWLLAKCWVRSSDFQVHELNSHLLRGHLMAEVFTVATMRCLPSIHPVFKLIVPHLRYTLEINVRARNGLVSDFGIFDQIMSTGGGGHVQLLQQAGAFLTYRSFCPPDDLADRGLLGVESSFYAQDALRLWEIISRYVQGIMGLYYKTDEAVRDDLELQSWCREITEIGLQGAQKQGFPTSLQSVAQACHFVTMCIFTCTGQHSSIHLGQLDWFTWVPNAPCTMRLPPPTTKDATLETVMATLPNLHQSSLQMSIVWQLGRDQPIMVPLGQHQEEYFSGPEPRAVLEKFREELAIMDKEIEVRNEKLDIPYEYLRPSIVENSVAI
Nature of the data set: biochemical. The conditions noted are these: reticulocytes. The format is tissue-based, Reticulocytes.

Data set [5] has as its target Voltage-gated inwardly rectifying potassium channel KCNH2 (Homo sapiens, UniProt Q12809). The conditions noted are these: hek293. Note: in other assays of this panel Not Active means under 50% inhibition at 10 µM.
In another data set the target is T3, Endothelin-1 receptor (Homo sapiens, UniProt P25101). Note: in other assays of this panel Not Active means under 50% inhibition at 10 µM.
T3 sequence (P25101 whole entry): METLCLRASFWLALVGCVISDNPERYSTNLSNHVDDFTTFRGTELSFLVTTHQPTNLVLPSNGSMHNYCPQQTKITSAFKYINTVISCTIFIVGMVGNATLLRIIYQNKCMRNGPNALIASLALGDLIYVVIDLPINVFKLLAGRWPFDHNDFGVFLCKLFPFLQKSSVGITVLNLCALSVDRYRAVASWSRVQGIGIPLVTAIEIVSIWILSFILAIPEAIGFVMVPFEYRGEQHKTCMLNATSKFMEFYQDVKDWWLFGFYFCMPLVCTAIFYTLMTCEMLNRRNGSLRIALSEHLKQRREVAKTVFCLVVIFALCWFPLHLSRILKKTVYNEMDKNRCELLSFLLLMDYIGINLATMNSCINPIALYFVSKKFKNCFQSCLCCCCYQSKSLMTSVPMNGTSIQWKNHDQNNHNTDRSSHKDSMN
In kind it is cell membranes, CHO-K1, Membrane. The conditions noted are these: cho-k1.

The target in data set [6] is cGMP-specific 3',5'-cyclic phosphodiesterase (Homo sapiens, UniProt O76074). Put plainly: DRUGMATRIX: Phosphodiesterase PDE5 enzyme inhibition (substrate: [3H]cGMP + cGMP). The format is tissue-based. The following applies: platelet; Not Active = under 50% inhibition at 10 µM.

Voltage-gated inwardly rectifying potassium channel KCNH2, sequence (Q12809 whole entry): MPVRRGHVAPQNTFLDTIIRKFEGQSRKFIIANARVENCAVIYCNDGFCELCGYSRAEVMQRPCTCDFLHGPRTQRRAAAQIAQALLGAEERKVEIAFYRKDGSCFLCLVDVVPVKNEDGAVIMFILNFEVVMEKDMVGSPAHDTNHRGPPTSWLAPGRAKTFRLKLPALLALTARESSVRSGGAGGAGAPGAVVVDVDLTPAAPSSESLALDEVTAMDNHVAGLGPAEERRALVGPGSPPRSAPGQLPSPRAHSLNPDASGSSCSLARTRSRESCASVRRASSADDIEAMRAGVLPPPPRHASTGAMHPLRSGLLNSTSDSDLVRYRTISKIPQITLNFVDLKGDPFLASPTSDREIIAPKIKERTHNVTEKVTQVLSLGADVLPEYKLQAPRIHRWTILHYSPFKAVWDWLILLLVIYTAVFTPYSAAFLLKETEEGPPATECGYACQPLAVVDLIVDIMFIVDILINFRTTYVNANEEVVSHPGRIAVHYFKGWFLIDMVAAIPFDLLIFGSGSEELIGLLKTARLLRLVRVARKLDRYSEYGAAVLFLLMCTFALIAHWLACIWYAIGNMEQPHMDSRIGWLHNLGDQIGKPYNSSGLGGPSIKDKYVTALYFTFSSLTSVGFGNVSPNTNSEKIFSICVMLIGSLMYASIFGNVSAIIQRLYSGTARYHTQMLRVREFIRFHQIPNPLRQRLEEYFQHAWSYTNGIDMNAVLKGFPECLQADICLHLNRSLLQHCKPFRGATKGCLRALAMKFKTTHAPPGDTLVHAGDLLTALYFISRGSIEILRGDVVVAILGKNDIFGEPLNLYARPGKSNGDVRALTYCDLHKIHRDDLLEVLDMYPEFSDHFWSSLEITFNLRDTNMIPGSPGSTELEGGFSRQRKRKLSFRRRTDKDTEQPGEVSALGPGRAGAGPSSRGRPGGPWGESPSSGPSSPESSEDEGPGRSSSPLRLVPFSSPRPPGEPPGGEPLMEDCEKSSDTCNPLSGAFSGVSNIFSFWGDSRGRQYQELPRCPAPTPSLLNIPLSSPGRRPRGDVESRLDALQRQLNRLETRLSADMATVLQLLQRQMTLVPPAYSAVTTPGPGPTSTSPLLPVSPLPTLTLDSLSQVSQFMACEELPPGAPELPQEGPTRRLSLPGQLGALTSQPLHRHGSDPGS
Sodium-dependent dopamine transporter, sequence (Q01959 whole entry): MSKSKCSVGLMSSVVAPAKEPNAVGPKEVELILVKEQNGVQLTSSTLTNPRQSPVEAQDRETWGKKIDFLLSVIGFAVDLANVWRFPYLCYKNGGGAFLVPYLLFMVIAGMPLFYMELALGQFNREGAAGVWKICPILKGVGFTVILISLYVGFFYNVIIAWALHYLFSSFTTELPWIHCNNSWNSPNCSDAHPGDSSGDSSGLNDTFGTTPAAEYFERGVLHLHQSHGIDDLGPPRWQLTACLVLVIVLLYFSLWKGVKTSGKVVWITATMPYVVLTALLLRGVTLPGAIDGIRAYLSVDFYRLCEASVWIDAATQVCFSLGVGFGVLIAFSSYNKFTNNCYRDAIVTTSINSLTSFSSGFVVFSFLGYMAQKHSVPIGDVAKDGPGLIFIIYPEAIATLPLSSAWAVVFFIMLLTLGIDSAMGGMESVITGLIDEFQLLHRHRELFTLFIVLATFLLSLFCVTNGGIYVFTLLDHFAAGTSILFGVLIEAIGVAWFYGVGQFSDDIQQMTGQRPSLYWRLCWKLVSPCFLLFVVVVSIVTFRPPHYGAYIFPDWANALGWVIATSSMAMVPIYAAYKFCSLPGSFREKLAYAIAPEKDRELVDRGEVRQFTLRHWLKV

As to `Nn1nnc2ccccc21`, the IC50 result (in data set [1]; in data set [2] (cho-k1); in data set [3]; in data set [4]; in data set [5]; on Endothelin-1 receptor) was “Not Active” each time. Moreover, the IC50 entry in data set [6] is reported as “Not Active”. The Ki entry in data set [5] is recorded as “Not Active”.
Turning to `CC[C@]1(O)CC[C@H]2[C@@H]3CCC4=CCCC[C@@H]4[C@H]3CC[C@@]21C`, the IC50 result (in data set [1]; in data set [2] (cho-k1); in data set [3]; in data set [4]; in data set [5]; against Endothelin-1 receptor) was “Not Active” each time. Also, the IC50 result in data set [6] is given as “Not Active”. In addition, the Ki entry in data set [5] was “Not Active”.
`N[C@@H](Cc1ccc(F)cc1)C(=O)O`: the IC50 result (in data set [1]; in data set [2] (cho-k1); in data set [3]; in data set [4]; in data set [5]; against Endothelin-1 receptor) was “Not Active” each time. Moreover, the IC50 entry in data set [6] is on record as “Not Active”. Moreover, the Ki entry in data set [5] is “Not Active”.
`O=C(c1ccccc1Cl)N1CCC(Cc2ccccc2)CC1`: the IC50 entry (in data set [1]; in data set [2] (cho-k1); in data set [3]; in data set [4]; in data set [5]; against Endothelin-1 receptor) was “Not Active” throughout. In data set [6], the IC50 entry was “Not Active”. The inhibition constant Ki result in data set [5] is “Not Active”.
On to `CCOC(=O)[C@H](CCc1ccccc1)N[C@@H](C)C(=O)N1CCC[C@H]1C(=O)O`, for which the IC50 result (in data set [1]; in data set [2] (cho-k1); in data set [3]; in data set [4]; in data set [5]; against Endothelin-1 receptor) was “Not Active” each time. Besides, the IC50 entry in data set [6] is recorded as “Not Active”. The inhibitory constant (Ki) entry in data set [5] is listed as “Not Active”.
Consider `CCC[C@@H]1C[C@@H](C(=O)N[C@@H]([C@H]2O[C@H](SC)[C@H](O)[C@@H](O)[C@H]2O)[C@H](C)Cl)N(C)C1` [CLINDAMYCIN], for which the IC50 result (in data set [1]; in data set [2] (cho-k1); in data set [3]; in data set [4]; on Endothelin-1 receptor; in data set [6]) was “Not Active” in each case.
As for `CN1C(=O)CN=C(c2ccccc2)c2cc(Cl)ccc21` [DIAZEPAM], the IC50 entry (in data set [1]; in data set [2] (cho-k1); in data set [3]; in data set [4]; against Endothelin-1 receptor; in data set [6]) was “Not Active” in each case.
With `Cc1cnc(C(=O)NCCc2ccc(S(=O)(=O)NC(=O)NC3CCCCC3)cc2)cn1` [GLIPIZIDE], the IC50 result (in data set [1]; in data set [2] (cho-k1); in data set [4]; at Endothelin-1 receptor; in data set [6]) was “Not Active” in each case.
For `C/C=C\c1ccc(O)c(OC)c1` [ISOEUGENOL], the IC50 entry (in data set [1]; in data set [2] (cho-k1); in data set [3]; in data set [4]; on Endothelin-1 receptor; in data set [6]) was “Not Active” each time.
On to `CC[C@H](C)C(=O)O[C@H]1C[C@@H](C)C=C2C=C[C@H](C)[C@H](CC[C@@H]3C[C@@H](O)CC(=O)O3)[C@H]21` [LOVASTATIN], for which the IC50 result in data set [1] is “Not Active”; in data set [2] (read-out: IC50), 10.1 µM; in data set [3], “Not Active”; in data set [4], “Not Active”; at Endothelin-1 receptor, “Not Active”; in data set [6], “Not Active”. Besides, the Ki in data set [2] (read-out: Ki) is 8.03 µM.
For `OCCN1CCN(CCCN2c3ccccc3Sc3ccc(Cl)cc32)CC1` [PERPHENAZINE], the IC50 entry (in data set [1]; in data set [2] (cho-k1); in data set [3]; in data set [4]; at Endothelin-1 receptor; in data set [6]) was “Not Active” throughout.
